According to PMC449707 (BMC Pharmacology, 2004):

Test system: whole bone marrow cells
Assay: Fibroblastic colony forming unit
Format: cell-based, rat
Settings: for effect on colony number of co-treatment with exogenous PGE2: 10 μM PDE inhibitor plus PGE2 as low as 0.1 nM; for effect on colony number, agent alone: 10 μM, CFU-f assay, no exogenous PGE2

Structure (SMILES)	effect on colony number of co-treatment with exogenous PGE2	effect on colony number, agent alone
COc1ccc(C2CNC(=O)C2)cc1OC1CCCC1 (stereo not shown) [rolipram]	almost maximal responses	significant stimulation in colony number
CC(C)Cn1c(=O)n(C)c(=O)c2[nH]cnc21 [IBMX, isobutylmethylxanthine]	almost maximal responses	significant stimulation in colony number
